According to ChEMBL document CHEMBL1201862, “PubChem BioAssay data set” (2004):
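All cell lines were grown in 96-well plates and treated with compound for 48 hours. Abbreviation: GI50, concentration required for 50% inhibition of growth.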 Active and inactive are the calls of the source. No stated cut-off is given here; in the data, active = GI50 up to about 1.1 µM and inactive = higher.

Assays:
Test in all cases: growth of human tumour cells (NCI), 48 h
TK-10 = test system: TK-10
LOX IMVI = test system: LOX IMVI
U-251 = test system: U-251
HT-29 = test system: HT-29
NCI-H23 = test system: NCI-H23
SN12C = test system: SN12C
MOLT-4 = test system: MOLT-4
ACHN = test system: ACHN
Malme-3M = test system: Malme-3M
HCT-116 = test system: HCT-116
UACC-257 = test system: UACC-257
RXF 393 = test system: RXF 393
SNB-75 = test system: SNB-75
RXF 631 = test system: RXF 631
RPMI-8226 = test system: RPMI-8226
OVCAR-5 = test system: OVCAR-5
786-0 = test system: 786-0
SNB-78 = test system: SNB-78
HOP-18 = test system: HOP-18
EKVX = test system: EKVX
SW-620 = test system: SW-620
KM-20L2 = test system: KM-20L2
COLO 205 = test system: COLO 205
HCT-15 = test system: HCT-15
LXFL 529 = test system: LXFL 529
SK-MEL-28 = test system: SK-MEL-28
OVCAR-3 = test system: OVCAR-3
SNB-19 = test system: SNB-19
SF-539 = test system: SF-539
CAKI-1 = test system: CAKI-1
SF-268 = test system: SF-268
SR = test system: SR
M14 = test system: M14
HOP-62 = test system: HOP-62
HOP-92 = test system: HOP-92
A549 = test system: A549
NCI-H226 = test system: NCI-H226
IGROV-1 = test system: IGROV-1
DLD-1 = test system: DLD-1
SF-295 = test system: SF-295
SK-MEL-5 = test system: SK-MEL-5
NCI-H522 = test system: NCI-H522
NCI-H460 = test system: NCI-H460
A498 = test system: A498
DMS-114 = test system: DMS-114
HL-60 = test system: HL-60
SK-OV-3 = test system: SK-OV-3
CCRF-CEM = test system: CCRF-CEM
UACC-62 = test system: UACC-62
OVCAR-4 = test system: OVCAR-4
K562 = test system: K562
OVCAR-8 = test system: OVCAR-8
DMS-273 = test system: DMS-273
KM12 = test system: KM12
XF498 = test system: XF498
SK-MEL-2 = test system: SK-MEL-2
M19-MEL = test system: M19-MEL
UO-31 = test system: UO-31
HCC 2998 = test system: HCC 2998

O=C1OC(=O)C([Se]c2ccccc2)=C1[Se]c1ccccc1
GI50 (TK-10): > 100 µM (inactive) | GI50 (LOX IMVI): > 100 µM (inactive) | GI50 (U-251): > 100 µM (inactive) | GI50 (HT-29): 44.9 µM (inactive) | GI50 (NCI-H23): 32.4 µM (inactive) | GI50 (SN12C): > 100 µM (inactive) | GI50 (MOLT-4): > 100 µM (inactive) | GI50 (ACHN): > 100 µM (inactive) | GI50 (Malme-3M): > 100 µM (inactive) | GI50 (HCT-116): > 100 µM (inactive) | GI50 (UACC-257): > 100 µM (inactive) | GI50 (RXF 393): > 100 µM (inactive) | GI50 (SNB-75): > 100 µM (inactive) | GI50 (RXF 631): > 100 µM (inactive) | GI50 (RPMI-8226): > 100 µM (inactive) | GI50 (OVCAR-5): > 100 µM (inactive) | GI50 (786-0): > 100 µM (inactive) | GI50 (SNB-78): > 100 µM (inactive) | GI50 (HOP-18): > 100 µM (inactive) | GI50 (EKVX): > 100 µM (inactive) | GI50 (SW-620): > 100 µM (inactive) | GI50 (KM-20L2): > 100 µM (inactive) | GI50 (COLO 205): > 100 µM (inactive) | GI50 (HCT-15): > 100 µM | GI50 (LXFL 529): > 100 µM (inactive) | GI50 (SK-MEL-28): > 100 µM (inactive) | GI50 (OVCAR-3): > 100 µM (inactive) | GI50 (SNB-19): > 100 µM (inactive) | GI50 (SF-539): > 100 µM (inactive) | GI50 (CAKI-1): > 100 µM (inactive) | GI50 (SF-268): > 100 µM (inactive) | GI50 (SR): > 100 µM (inactive) | GI50 (M14): > 100 µM (inactive) | GI50 (HOP-62): > 100 µM (inactive) | GI50 (HOP-92): 70.1 µM (inactive) | GI50 (A549): > 100 µM (inactive) | GI50 (NCI-H226): > 100 µM (inactive) | GI50 (IGROV-1): > 100 µM (inactive) | GI50 (DLD-1): > 100 µM (inactive) | GI50 (SF-295): > 100 µM (inactive) | GI50 (SK-MEL-5): > 100 µM (inactive) | GI50 (NCI-H522): > 100 µM (inactive) | GI50 (NCI-H460): > 100 µM (inactive) | GI50 (A498): > 100 µM (inactive) | GI50 (DMS-114): > 100 µM (inactive) | GI50 (HL-60): > 100 µM (inactive) | GI50 (SK-OV-3): > 100 µM (inactive) | GI50 (CCRF-CEM): > 100 µM (inactive) | GI50 (UACC-62): > 100 µM (inactive) | GI50 (OVCAR-4): > 100 µM (inactive) | GI50 (K562): > 100 µM (inactive) | GI50 (OVCAR-8): > 100 µM (inactive)

CC1(O)C(C)(O)C2(C)O[Te]3(OC12C)OC1(C)C(C)(O)C(C)(O)C1(C)O3 (configuration not stated)
GI50 (TK-10): 23.1 µM (inactive) | GI50 (LOX IMVI): 4.41 µM (inactive) | GI50 (DMS-273): 19.3 µM (inactive) | GI50 (U-251): 10.8 µM (inactive) | GI50 (HT-29): 27.3 µM (inactive) | GI50 (NCI-H23): 14.8 µM (inactive) | GI50 (SN12C): 23.1 µM (inactive) | GI50 (MOLT-4): 11.8 µM (inactive) | GI50 (ACHN): 31.3 µM (inactive) | GI50 (KM12): 23.7 µM (inactive) | GI50 (Malme-3M): 96.2 µM (inactive) | GI50 (UACC-257): > 100 µM (inactive) | GI50 (RXF 393): 12.4 µM (inactive) | GI50 (SNB-75): > 100 µM (inactive) | GI50 (XF498): > 100 µM (inactive) | GI50 (RXF 631): 18.5 µM (inactive) | GI50 (SK-MEL-2): 44.6 µM (inactive) | GI50 (RPMI-8226): 15.5 µM (inactive) | GI50 (OVCAR-5): 15.3 µM (inactive) | GI50 (786-0): 56.8 µM (inactive) | GI50 (SNB-78): > 100 µM (inactive) | GI50 (EKVX): > 100 µM (inactive) | GI50 (SW-620): > 10 µM (inactive) | GI50 (COLO 205): > 100 µM (inactive) | GI50 (HCT-15): 11.5 µM | GI50 (M19-MEL): 22.1 µM (inactive) | GI50 (LXFL 529): 16 µM (inactive) | GI50 (SK-MEL-28): 16.2 µM (inactive) | GI50 (UO-31): 27.5 µM (inactive) | GI50 (OVCAR-3): 20.2 µM (inactive) | GI50 (SNB-19): 28.1 µM (inactive) | GI50 (SF-539): 29.1 µM (inactive) | GI50 (HCC 2998): 42.7 µM (inactive) | GI50 (SF-268): > 10 µM (inactive) | GI50 (SR): 17.2 µM (inactive) | GI50 (M14): > 100 µM (inactive) | GI50 (HOP-62): > 100 µM (inactive) | GI50 (HOP-92): 31 µM (inactive) | GI50 (A549): 6.67 µM (inactive) | GI50 (NCI-H226): 29.4 µM (inactive) | GI50 (IGROV-1): 12.3 µM (inactive) | GI50 (DLD-1): 33 µM (inactive) | GI50 (SF-295): 15.3 µM (inactive) | GI50 (SK-MEL-5): 15 µM (inactive) | GI50 (NCI-H522): 17.8 µM (inactive) | GI50 (NCI-H460): 3.32 µM (inactive) | GI50 (A498): > 10 µM (inactive) | GI50 (DMS-114): 20 µM (inactive) | GI50 (HL-60): 10.6 µM (inactive) | GI50 (SK-OV-3): > 10 µM (inactive) | GI50 (CCRF-CEM): 2.41 µM (inactive) | GI50 (UACC-62): 35.6 µM (inactive) | GI50 (OVCAR-4): 24.3 µM (inactive) | GI50 (K562): 9.79 µM (inactive) | GI50 (OVCAR-8): 16.1 µM (inactive)
